From PMC4527713, “An IPTG Inducible Conditional Expression System for Mycobacteria” (PLoS ONE, 2015)

Molecular target: T1, RpoB (β subunit of RNA polymerase) (Mycolicibacterium smegmatis, UniProt P60281)
T1 construct: with RNA polymerase (multimeric enzyme)
T1 sequence (P60281 1-1169): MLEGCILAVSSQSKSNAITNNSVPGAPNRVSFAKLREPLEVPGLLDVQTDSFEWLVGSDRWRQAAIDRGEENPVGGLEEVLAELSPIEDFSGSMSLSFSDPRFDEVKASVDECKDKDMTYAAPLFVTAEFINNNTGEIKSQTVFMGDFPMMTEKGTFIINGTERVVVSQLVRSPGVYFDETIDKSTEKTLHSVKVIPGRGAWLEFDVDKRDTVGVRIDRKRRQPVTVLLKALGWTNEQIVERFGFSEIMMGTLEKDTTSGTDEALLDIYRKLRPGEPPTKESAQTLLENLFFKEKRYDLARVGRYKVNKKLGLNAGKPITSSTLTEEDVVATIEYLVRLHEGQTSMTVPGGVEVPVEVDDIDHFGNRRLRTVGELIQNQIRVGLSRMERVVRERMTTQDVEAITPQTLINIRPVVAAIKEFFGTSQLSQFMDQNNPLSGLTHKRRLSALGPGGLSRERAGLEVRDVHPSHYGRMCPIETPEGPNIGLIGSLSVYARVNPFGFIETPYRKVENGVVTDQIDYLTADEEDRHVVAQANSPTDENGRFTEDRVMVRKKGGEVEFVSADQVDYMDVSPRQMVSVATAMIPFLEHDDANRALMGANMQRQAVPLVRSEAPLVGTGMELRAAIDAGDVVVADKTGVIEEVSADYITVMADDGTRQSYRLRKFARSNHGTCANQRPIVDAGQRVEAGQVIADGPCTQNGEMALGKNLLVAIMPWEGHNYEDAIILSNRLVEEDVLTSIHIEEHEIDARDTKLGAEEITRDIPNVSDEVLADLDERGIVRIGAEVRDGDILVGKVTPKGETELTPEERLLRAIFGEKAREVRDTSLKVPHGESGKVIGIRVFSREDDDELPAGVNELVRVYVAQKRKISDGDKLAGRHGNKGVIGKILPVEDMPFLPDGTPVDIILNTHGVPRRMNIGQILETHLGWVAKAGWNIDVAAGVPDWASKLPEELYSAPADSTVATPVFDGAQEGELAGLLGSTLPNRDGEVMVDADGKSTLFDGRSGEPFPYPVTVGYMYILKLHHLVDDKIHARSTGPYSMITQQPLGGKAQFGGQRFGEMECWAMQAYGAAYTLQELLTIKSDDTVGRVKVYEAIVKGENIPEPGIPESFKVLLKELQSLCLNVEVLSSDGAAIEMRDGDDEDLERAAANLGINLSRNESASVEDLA
Assay: MIC shift in rpoB knockdown strain ([…]; no shift in inhA knockdown); also reference inhibitor in the screens, IC50 not given
Type: cell-based

SMILES: CO[C@H]1/C=C/O[C@@]2(C)Oc3c(C)c(O)c4c(O)c(c(/C=N/N5CCN(C)CC5)c(O)c4c3C2=O)NC(=O)/C(C)=C\C=C\[C@H](C)[C@H](O)[C@@H](C)[C@@H](O)[C@@H](C)[C@H](OC(C)=O)[C@@H]1C [rifampicin]
- MIC shift in rpoB knockdown strain (8 to 0.5 μg/ml; no shift in inhA knockdown);: modulation in MIC of rifampicin and isoniazid are due to the reduction in the respective target protein levels
